Experimental data from patent US9206412B2, “Thioxothiazolidine inhibitors” (Colorado State University Research Foundation, priority 2012, dated 2015).

Columns and labels:
BHK-pD2hRucPac cells = assay: Cell viability (CellTiter-Glo) in replicon assay; conditions: read-out: Replicon Assay_CC50_M; Table 2-1
[1] = molecular target: yellow fever virus capping enzyme (Yellow fever virus, UniProt P03314); assay: biochemical; format: binding, yellow fever virus (strain 17D); conditions: read-out: FP_YF_KI_AVG_YF_M
Chain of yellow fever virus capping enzyme (P03314 2507-2774 limits assumed): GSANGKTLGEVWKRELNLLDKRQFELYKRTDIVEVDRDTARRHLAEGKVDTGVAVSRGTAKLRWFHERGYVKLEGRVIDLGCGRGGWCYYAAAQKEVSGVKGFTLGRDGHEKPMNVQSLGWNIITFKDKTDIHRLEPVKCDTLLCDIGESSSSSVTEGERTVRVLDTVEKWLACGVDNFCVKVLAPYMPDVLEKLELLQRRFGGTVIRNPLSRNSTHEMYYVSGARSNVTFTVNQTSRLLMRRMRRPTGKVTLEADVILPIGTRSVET

[2] = tested on: dengue type 2 virus subgenomic replicon (BHK-pD2hRucPac); assay: Antiviral (replicon) assay, Renilla luciferase; format: cell-based; conditions: Table 2-1; read-out: Replicon Assay_EC50_M
[3] = molecular target: T1, dengue virus capping enzyme (Dengue virus type 2, UniProt P29990); assay: biochemical; format: binding, dengue virus type 2 (strain 16681); conditions: read-out: FP_DEN_Ki_AVG_DEN_M
T1 sequence (P29990 2492-2758): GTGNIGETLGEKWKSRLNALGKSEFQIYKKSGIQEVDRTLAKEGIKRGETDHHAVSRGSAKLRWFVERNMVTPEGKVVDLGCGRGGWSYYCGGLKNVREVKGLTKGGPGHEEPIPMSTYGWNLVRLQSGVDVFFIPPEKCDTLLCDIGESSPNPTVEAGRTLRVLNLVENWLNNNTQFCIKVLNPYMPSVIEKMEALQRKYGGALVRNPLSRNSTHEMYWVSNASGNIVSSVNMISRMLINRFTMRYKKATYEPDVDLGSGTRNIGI

Compound: O=C(CN1C(=O)C(=Cc2ccccc2Cl)SC1=S)Nc1cccc(C(=O)O)c1 [BG123]
- CC50 (BHK-pD2hRucPac cells): 103 µM
- Ki [1]: 5 µM
- EC50 [2]: 75 µM
- Ki [3]: 4 µM

Compound: O=C(CCCN1C(=O)/C(=C/c2ccc(F)cc2)SC1=S)Nc1cccc(C(=O)O)c1 [BG124]
- CC50 (BHK-pD2hRucPac cells): 56 µM
- Ki [1]: 18 µM
- EC50 [2]: 80 µM
- Ki [3]: 14 µM

Compound: CCOc1ccc(N2C(=O)C(=Cc3ccccc3C(=O)O)SC2=S)cc1 [BG126]
- CC50 (BHK-pD2hRucPac cells): 51 µM
- Ki [1]: 19 µM
- EC50 [2]: 52 µM
- Ki [3]: 17 µM

Compound: O=C1NC(=S)SC1=Cc1ccccc1OS(=O)(=O)c1ccc([N+](=O)[O-])cc1 [BG127]
- CC50 (BHK-pD2hRucPac cells): 40 µM
- Ki [1]: 6 µM
- EC50 [2]: 109 µM
- Ki [3]: 5 µM

Compound: Cc1cccc(N2C(=O)/C(=C/c3ccc(C(=O)O)cc3)SC2=S)c1C [BG128]
- CC50 (BHK-pD2hRucPac cells): 42 µM
- Ki [1]: 13 µM
- EC50 [2]: 45 µM
- Ki [3]: 11 µM

Compound: Cc1ccc(N2C(=O)/C(=C/c3ccccc3C(=O)O)SC2=S)c(C)c1 [BG130]
- CC50 (BHK-pD2hRucPac cells): 50 µM
- Ki [1]: 15 µM
- EC50 [2]: 61 µM
- Ki [3]: 8 µM

Compound: O=C(CN1C(=O)/C(=C/c2ccccc2F)SC1=S)Nc1cccc(C(=O)O)c1 [BG131]
- CC50 (BHK-pD2hRucPac cells): 71 µM
- Ki [1]: 12 µM
- EC50 [2]: 54 µM
- Ki [3]: 6 µM

Compound: O=C(CN1C(=O)/C(=C/c2ccccc2F)SC1=S)Nc1ccccc1C(=O)O [BG132]
- CC50 (BHK-pD2hRucPac cells): 50 µM
- Ki [1]: 3 µM
- EC50 [2]: 114 µM
- Ki [3]: 3 µM

Compound: CC(C(=O)O)N1C(=O)C(=Cc2ccc(Cl)cc2Cl)SC1=S (stereo not shown) [BG133]
- CC50 (BHK-pD2hRucPac cells): 77 µM
- Ki [1]: 14 µM
- EC50 [2]: 126 µM
- Ki [3]: 7 µM

Compound: CC(C)C(C(=O)O)N1C(=O)/C(=C/c2ccccc2Cl)SC1=S (stereo not shown) [BG134]
- CC50 (BHK-pD2hRucPac cells): 66 µM
- Ki [1]: 15 µM
- EC50 [2]: 61 µM
- Ki [3]: 15 µM

Compound: Cc1cccc(/C=C2\SC(=S)N(CN3CCCCC3)C2=O)c1 [BG136]
- CC50 (BHK-pD2hRucPac cells): 49 µM
- Ki [1]: 27 µM
- EC50 [2]: 41 µM
- Ki [3]: 16 µM

Compound: CC(=C1SC(=S)NC1=O)c1ccc(C)cc1 [BG137]
- CC50 (BHK-pD2hRucPac cells): 67 µM
- Ki [1]: 25 µM
- EC50 [2]: 55 µM
- Ki [3]: 19 µM

Compound: O=C(O)C(Cc1ccccc1)N1C(=O)C(=CC=Cc2ccccc2)SC1=S (stereo not shown) [BG138]
- CC50 (BHK-pD2hRucPac cells): 33 µM
- Ki [1]: 4 µM
- EC50 [2]: 32 µM
- Ki [3]: 3 µM

Compound: O=C(O)CCN1C(=O)C(=Cc2ccc(-c3ccccc3[N+](=O)[O-])o2)SC1=S [BG139]
- CC50 (BHK-pD2hRucPac cells): 56 µM
- Ki [1]: 7 µM
- EC50 [2]: 51 µM
- Ki [3]: 5 µM

Compound: O=C(CN1C(=O)S/C(=C\c2ccccc2F)C1=O)Nc1ccccc1C(=O)O [BG142]
- CC50 (BHK-pD2hRucPac cells): 137 µM
- Ki [1]: 51 µM
- EC50 [2]: 102 µM
- Ki [3]: 23 µM

Compound: O=C1NC(=O)C(=Cc2ccc(Br)cc2)S1 [BG143]
- CC50 (BHK-pD2hRucPac cells): 60 µM
- Ki [1]: 24 µM
- EC50 [2]: 50 µM
- Ki [3]: 20 µM

Compound: COc1cc(/C=C2\SC(=O)N(Cc3ccc(F)cc3)C2=O)c(Br)cc1OCC(=O)O [BG163]
- CC50 (BHK-pD2hRucPac cells): 38 µM
- Ki [1]: 9 µM
- EC50 [2]: 32 µM
- Ki [3]: 5 µM

Compound: CC(C)N1C(=O)SC(=Cc2ccccc2OCc2ccc(C(=O)O)cc2)C1=O [BG166]
- CC50 (BHK-pD2hRucPac cells): 33 µM
- Ki [1]: 14 µM
- EC50 [2]: 28 µM
- Ki [3]: 7 µM

Compound: COc1ccc2nc(N3CCCCC3)c(C=C3SC(=S)NC3=O)cc2c1 [BG168]
- CC50 (BHK-pD2hRucPac cells): 12 µM
- Ki [1]: 2 µM
- EC50 [2]: 13 µM
- Ki [3]: 2 µM

Compound: CCOc1cc(/C=C2\SC(=S)NC2=O)ccc1OS(=O)(=O)c1ccccc1[N+](=O)[O-] [BG169]
- CC50 (BHK-pD2hRucPac cells): 29 µM
- Ki [1]: 2 µM
- EC50 [2]: 26 µM
- Ki [3]: 2 µM

Compound: Cc1cc(C)cc(-n2c(C)cc(/C=C3\SC(=O)NC3=O)c2C)c1 [BG172]
- CC50 (BHK-pD2hRucPac cells): 26 µM
- Ki [1]: 14 µM
- EC50 [2]: 20 µM
- Ki [3]: 11 µM

Compound: CN1C(=O)S/C(=C\c2ccc(-c3ccc(C(=O)O)c(Cl)c3)o2)C1=O [BG175]
- CC50 (BHK-pD2hRucPac cells): 82 µM
- Ki [1]: 17 µM
- EC50 [2]: 78 µM
- Ki [3]: 13 µM
